From the supplement of paper PMC9663587

Columns and labels:
[1] = compound: CCN1CCN(Cc2ccc(Nc3ncc(F)c(-c4cc(F)c5nc(C)n(C(C)C)c5c4)n3)nc2)CC1; test: GR value, 72 h; higher = faster growth (1 = untreated, <0 = killing);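 also: breast cancer and non-malignant breast epithelial lines, nine half-log doses, viable cells counted by Hoechst and LIVE/DEAD dye imaging versus time-zero plates and DMSO controls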
THZ1 = compound: CN(C)C/C=C/C(=O)Nc1ccc(C(=O)Nc2cccc(Nc3ncc(Cl)c(-c4c[nH]c5ccccc45)n3)c2)cc1 [THZ1]; test: as above
BSJ-03-123 = compound: CC(=O)c1c(C)c2cnc(Nc3ccc(N4CCN(CCOCCOCCOCCNC(=O)COc5cccc6c5C(=O)N(C5CCC(=O)NC5=O)C6=O)CC4)cn3)nc2n(C2CCCC2)c1=O [BSJ-03-123]; test: as above
LEE011/Ribociclib = compound: CN(C)C(=O)c1cc2cnc(Nc3ccc(N4CCNCC4)cn3)nc2n1C1CCCC1 [LEE011/Ribociclib]; test: as above
YKL-5-124 = compound: C=CC(=O)Nc1ccc(C(=O)Nc2[nH]nc3c2CN(C(=O)N[C@H](CN(C)C)c2ccccc2)C3(C)C)cc1 [YKL-5-124]; test: as above
THZ531 [2] = compound: T1, CN(C)C/C=C/C(=O)Nc1ccc(C(=O)N2CCC[C@@H](Nc3ncc(Cl)c(-c4c[nH]c5ccccc45)n3)C2)cc1 [THZ531]; test: as above
[3] = compound: CC(=O)c1c(C)c2cnc(Nc3ccc(N4CCNCC4)cn3)nc2n(C2CCCC2)c1=O; test: as above
[4] = compound: CCc1cnn2c(NCc3ccc[n+]([O-])c3)cc(N3CCCC[C@H]3CCO)nc12; test: as above
Ceritinib/LDK378 = compound: Cc1cc(Nc2ncc(Cl)c(Nc3ccccc3S(=O)(=O)C(C)C)n2)c(OC(C)C)cc1C1CCNCC1 [Ceritinib/LDK378]
Rucaparib = compound: CNCc1ccc(-c2[nH]c3cc(F)cc4c3c2CCNC4=O)cc1 [Rucaparib]
THZ531 [5] = compound: T1, THZ531
senexin b = compound: CN1CCN(C(=O)c2ccc3cc(CCNc4ncnc5ccc(C#N)cc45)ccc3c2)CC1 [senexin b]
Tivantinib/ARQ197 = compound: O=C1NC(=O)[C@@H](c2cn3c4c(cccc24)CCC3)[C@@H]1c1c[nH]c2ccccc12 [Tivantinib/ARQ197]
Pictilisib/GDC0941 = compound: CS(=O)(=O)N1CCN(Cc2cc3nc(-c4cccc5[nH]ncc45)nc(N4CCOCC4)c3s2)CC1 [Pictilisib/GDC0941]
BSJ-01-175 = compound: CN(C)C/C=C/C(=O)Nc1ccc(O[C@@H]2CCC[C@@H](Nc3ncc(Cl)c(-c4c[nH]c5ccccc45)n3)C2)cc1 [BSJ-01-175]
AZD6738 = compound: C[C@@H]1COCCN1c1cc(C2([S@](C)(=N)=O)CC2)nc(-c2cc[nH]c3nccc2-3)n1 [AZD6738]
Paclitaxel = compound: CC(=O)O[C@H]1C(=O)[C@@]2(C)[C@H]([C@H](OC(=O)c3ccccc3)[C@]3(O)C[C@H](OC(=O)[C@H](O)[C@@H](NC(=O)c4ccccc4)c4ccccc4)C(C)=C1C3(C)C)[C@]1(OC(C)=O)CO[C@@H]1C[C@@H]2O [Paclitaxel]
Cediranib/AZD2171 = compound: COc1cc2c(Oc3ccc4[nH]c(C)cc4c3F)ncnc2cc1OCCCN1CCCC1 [Cediranib/AZD2171]
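For GR50, 72 h in this document: breast cancer and non-malignant breast epithelial cell lines, Deep Dye Drop or Dye Drop imaging, nine half-log doses, GR normalized to time-zero plates and DMSO-only controls.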

MDAMB436 gave a GR value ([1]; 0.001 µM) of 1.04 GR, a GR value ([1]; 0.003162 µM) of 1 GR and a GR value ([1]; 0.01 µM) of 1.04 GR. For the same cell line, the GR value ([1]; 0.03162 µM) was 1.03 GR, the GR value ([1]; 0.1 µM) was 1.02 GR and the GR value ([1]; 0.3162 µM) was 1 GR. It also gave a GR value ([1]; 1 µM) of 0.719 GR, a GR value ([1]; 3.162 µM) of 0.337 GR and a GR value ([1]; 10 µM) of -0.322 GR. It also gave a GR value (THZ1; 0.0001 µM) of 0.928 GR, a GR value (THZ1; 0.0003162 µM) of 1.07 GR and a GR value (THZ1; 0.001 µM) of 1.03 GR. The GR value (THZ1; 0.003162 µM) was 1.02 GR, the GR value (THZ1; 0.01 µM) was 1.1 GR and the GR value (THZ1; 0.03162 µM) was 1.02 GR. It also gave a GR value (THZ1; 0.1 µM) of 0.478 GR, a GR value (THZ1; 0.3162 µM) of 0.229 GR and a GR value (THZ1; 1 µM) of -0.138 GR. For the same cell line, the GR value (BSJ-03-123; 0.001 µM) was 1.1 GR, the GR value (BSJ-03-123; 0.003162 µM) was 1.07 GR and the GR value (BSJ-03-123; 0.01 µM) was 1.02 GR. The GR value (BSJ-03-123; 0.03162 µM) was 1.03 GR, the GR value (BSJ-03-123; 0.1 µM) was 1.11 GR and the GR value (BSJ-03-123; 0.3162 µM) was 0.971 GR. It also gave a GR value (BSJ-03-123; 1 µM) of 0.999 GR, a GR value (BSJ-03-123; 3.162 µM) of 0.966 GR and a GR value (BSJ-03-123; 10 µM) of -0.0484 GR. For the same cell line, the GR value (LEE011/Ribociclib; 0.001 µM) was 0.982 GR, the GR value (LEE011/Ribociclib; 0.003162 µM) was 1.05 GR and the GR value (LEE011/Ribociclib; 0.01 µM) was 1.06 GR. For the same cell line, the GR value (LEE011/Ribociclib; 0.03162 µM) was 1.08 GR, the GR value (LEE011/Ribociclib; 0.1 µM) was 0.913 GR and the GR value (LEE011/Ribociclib; 0.3162 µM) was 1.03 GR. For the same cell line, the GR value (LEE011/Ribociclib; 1 µM) was 0.95 GR, the GR value (LEE011/Ribociclib; 3.162 µM) was 0.982 GR and the GR value (LEE011/Ribociclib; 10 µM) was 0.951 GR. For the same cell line, the GR value (YKL-5-124; 0.001 µM) was 0.84 GR, the GR value (YKL-5-124; 0.003162 µM) was 0.563 GR and the GR value (YKL-5-124; 0.01 µM) was 0.533 GR. For the same cell line, the GR value (YKL-5-124; 0.03162 µM) was 0.432 GR, the GR value (YKL-5-124; 0.1 µM) was 0.409 GR and the GR value (YKL-5-124; 0.3162 µM) was 0.3 GR. It also gave a GR value (YKL-5-124; 1 µM) of 0.405 GR, a GR value (YKL-5-124; 3.162 µM) of 0.291 GR and a GR value (YKL-5-124; 10 µM) of -0.0192 GR. It also gave a GR value (THZ531 [2]; 0.0001 µM) of 1.1 GR, a GR value (THZ531 [2]; 0.0003162 µM) of 1.02 GR and a GR value (THZ531 [2]; 0.001 µM) of 0.944 GR. It also gave a GR value (THZ531 [2]; 0.003162 µM) of 1.07 GR, a GR value (THZ531 [2]; 0.01 µM) of 1.12 GR and a GR value (THZ531 [2]; 0.03162 µM) of 1.01 GR. It also gave a GR value (THZ531 [2]; 0.1 µM) of 0.676 GR, a GR value (THZ531 [2]; 0.3162 µM) of 0.328 GR and a GR value (THZ531 [2]; 1 µM) of 0.0201 GR. It also gave a GR value ([3]; 0.0003162 µM) of 1.06 GR, a GR value ([3]; 0.001 µM) of 1.04 GR and a GR value ([3]; 0.003162 µM) of 1.03 GR. It also gave a GR value ([3]; 0.01 µM) of 1.04 GR, a GR value ([3]; 0.03162 µM) of 0.977 GR and a GR value ([3]; 0.1 µM) of 1.03 GR. For the same cell line, the GR value ([3]; 0.3162 µM) was 1.01 GR, the GR value ([3]; 1 µM) was 1.09 GR and the GR value ([3]; 3.162 µM) was 1.02 GR. It also gave a GR value ([4]; 0.0001 µM) of 0.969 GR, a GR value ([4]; 0.0003162 µM) of 1.01 GR and a GR value ([4]; 0.001 µM) of 1.07 GR. For the same cell line, the GR value ([4]; 0.003162 µM) was 1.11 GR, the GR value ([4]; 0.01 µM) was 0.868 GR and the GR value ([4]; 0.03162 µM) was -0.101 GR. For the same cell line, the GR value ([4]; 0.1 µM) was -0.124 GR, the GR value ([4]; 0.3162 µM) was -0.0986 GR and the GR value ([4]; 1 µM) was -0.15 GR. For the same cell line, the “GR50, 72 h” value (Ceritinib/LDK378) was 0.499 µM, the “GR50, 72 h” value (Rucaparib) was 0.828 µM and the “GR50, 72 h” value (THZ531 [5]) was 0.19 µM. For the same cell line, the “GR50, 72 h” value (senexin b) was 8.65 µM, the “GR50, 72 h” value (Tivantinib/ARQ197) was 0.368 µM and the “GR50, 72 h” value (Pictilisib/GDC0941) was 5.27 µM. The “GR50, 72 h” value (BSJ-01-175) was 0.00965 µM, the “GR50, 72 h” value (AZD6738) was 9.07 µM and the “GR50, 72 h” value (Paclitaxel) was 0.00371 µM. The “GR50, 72 h” value (Cediranib/AZD2171) was 3.61 µM.
